How the values were obtained:
barnyardgrass [1] = test: Test B flooded paddy test; type: in vivo, Echinochloa crus-galli; conditions: 500 g ai/ha, Flood; scale of 0 to 100 where 0 is no effect and 100 is complete control
How it was run: (§1)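 Scored visually 0–100 (0 no effect, 100 complete control) versus controls after 13 to 15 greenhouse days. Treatment: compound added to paddy water kept 3 cm above soil, on 2-leaf-stage plants.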

rice = test: Test B flooded paddy test; type: in vivo, Oryza sativa; conditions: 500 g ai/ha, Flood; scale of 0 to 100 where 0 is no effect and 100 is complete control
How it was run: as §1

barnyardgrass [2] = test: Test C pre-/postemergence herbicide test; type: in vivo, Echinochloa crus-galli
How it was run: (§2)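 Compound solutions contained surfactant in a non-phytotoxic solvent. These were sprayed onto pots of loam/sand sown with seeds, and onto young plants (2 to 18 cm, 1- to 4-leaf) in sphagnum peat–vermiculite mix. Visual injury scores (0 none, 100 complete control) were recorded after 13 to 15 days.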

corn [3] = test: Test C pre-/postemergence herbicide test; type: in vivo, Zea mays
How it was run: as §2

nutsedge, yellow = test: Test C pre-/postemergence herbicide test; type: in vivo, Cyperus esculentus
How it was run: as §2

ducksalad = test: Test B flooded paddy test; type: in vivo, Heteranthera limosa; conditions: 500 g ai/ha, Flood; scale of 0 to 100 where 0 is no effect and 100 is complete control
How it was run: as §1

barnyardgrass [4] = test: Test A pre-/postemergence herbicide test; type: in vivo, Echinochloa crus-galli
How it was run: (§3)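 Formulated compound (non-phytotoxic solvent, surfactant) sprayed pre- onto soil of seeded loam/sand pots or post- onto seedlings at 1–2 leaves; ~10 d greenhouse; 0–100 visual control rating versus untreated.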

corn [5] = test: Test A pre-/postemergence herbicide test; type: in vivo, Zea mays; conditions: Postemergence
How it was run: as §3

soybean = test: Test C pre-/postemergence herbicide test; type: in vivo, Glycine max
How it was run: as §2

pigweed = test: Test A pre-/postemergence herbicide test; type: in vivo, Amaranthus retroflexus
How it was run: as §3

oilseed rape = test: Test C pre-/postemergence herbicide test; type: in vivo, Brassica napus
How it was run: as §2

foxtail, giant = test: Test C pre-/postemergence herbicide test; type: in vivo, Setaria faberii
How it was run: as §2

[6] = Postemergence, 31 g ai/ha, scale 0 to 100 (0 no effect, 100 complete control)
[7] = Postemergence, 62 g ai/ha, scale 0 (no effect) to 100 (complete control)
[8] = Postemergence, 125 g ai/ha, scale 0 to 100 (0 no effect, 100 complete control)
[9] = Postemergence, 250 g ai/ha, scale 0 to 100 (0 no effect, 100 complete control)
[10] = Preemergence, 31 g ai/ha, scale 0 to 100, 0 is no effect and 100 is complete control
[11] = Preemergence, 62 g ai/ha, scale 0 to 100 (0 no effect, 100 complete control)
[12] = Preemergence, 125 g ai/ha, scale 0 to 100
[13] = Postemergence, 125 g ai/ha, visual rating on 0 to 100 scale (0 no effect, 100 complete control), approx. 10 days
[14] = Postemergence, 500 g ai/ha, 0 to 100 scale (0 no effect, 100 complete control)
[15] = Preemergence, 125 g ai/ha, 0 to 100 scale where 0 is no effect and 100 is complete control
[16] = Preemergence, 500 g ai/ha, visual rating on 0 to 100 scale (0 no effect, 100 complete control)

## O=C1NCC(c2cccc(C(F)(F)F)c2)C1C(=O)Nc1cccc(Cl)c1F (centres unmarked) [Compound 316]
Barnyardgrass [1]
  Plant response rating, Barnyardgrass: 60
rice
  Plant response rating, Rice: 0
Barnyardgrass [2]; [6]
  Plant response rating, Barnyardgrass: 10
Barnyardgrass [2]; [7]
  Plant response rating, Barnyardgrass: 35
Barnyardgrass [2]; [8]
  Plant response rating, Barnyardgrass: 60
Barnyardgrass [2]; [9]
  Plant response rating, Barnyardgrass: 70
Barnyardgrass [2]; [10]
  Barnyardgrass plant response rating: 85
Barnyardgrass [2]; [11]
  Barnyardgrass plant response rating: 85
Barnyardgrass [2]; Preemergence, 125 g ai/ha, scale 0 to 100 (0 no effect, 100 complete control)
  Plant response rating, Barnyardgrass: 90
Barnyardgrass [2]; Preemergence, 250 g ai/ha
  Plant response rating (scale of 0 to 100; 0 is no effect, 100 is complete control), Barnyardgrass: 90
Corn [3]; [6]
  Plant response rating, Corn: 0
Corn [3]; [7]
  Plant response rating, Corn: 0
Corn [3]; [8]
  Plant response rating, Corn: 0
Corn [3]; [9]
  Plant response rating, Corn: 0
Corn [3]; [10]
  Corn plant response rating: 15
Corn [3]; [11]
  Corn plant response rating: 75
Corn [3]; [12]
  Plant response rating, Corn: 65
Corn [3]; Preemergence, 250 g ai/ha
  Plant response rating (scale of 0 to 100), Corn: 75
nutsedge, yellow; [6]
  Plant response rating, Nutsedge, Yellow: 0
nutsedge, yellow; [7]
  Plant response rating, Nutsedge, Yellow: 0
nutsedge, yellow; [8]
  Plant response rating, Nutsedge, Yellow: 0
nutsedge, yellow; [9]
  Plant response rating, Nutsedge, Yellow: 0
nutsedge, yellow; [10]
  Nutsedge, Yellow plant response rating: 0
nutsedge, yellow; [11]
  Nutsedge, Yellow plant response rating: 0
nutsedge, yellow; [12]
  Plant response rating, Nutsedge, Yellow: 0
nutsedge, yellow; Preemergence, 250 g ai/ha
  Plant response rating (scale of 0 to 100), Nutsedge, Yellow: 70
ducksalad
  Plant response rating, Ducksalad: 100
Barnyardgrass [4]; [13]
  Plant response rating, Barnyardgrass: 80
Barnyardgrass [4]; [14]
  Plant response rating, Barnyardgrass: 90
Barnyardgrass [4]; [15]
  Plant response rating, Barnyardgrass: 80
Barnyardgrass [4]; [16]
  Barnyardgrass plant response rating: 90
Corn [5]; 125 g ai/ha, visual rating on 0 to 100 scale (0 no effect, 100 complete control), approx. 10 days
  Plant response rating, Corn: 60
Corn [5]; 500 g ai/ha, 0 to 100 scale (0 no effect, 100 complete control)
  Plant response rating, Corn: 80
soybean; [6]
  Plant response rating, Soybean: 0
soybean; [7]
  Plant response rating, Soybean: 0
soybean; [8]
  Plant response rating, Soybean: 0
soybean; [9]
  Plant response rating, Soybean: 0
soybean; [11]
  Soybean plant response rating: 0
soybean; [12]
  Plant response rating, Soybean: 0
pigweed; [13]
  Plant response rating, Pigweed: 0
pigweed; [14]
  Plant response rating, Pigweed: 20
pigweed; [15]
  Plant response rating, Pigweed: 20
pigweed; [16]
  Pigweed plant response rating: 20
Oilseed rape; [6]
  Plant response rating, Oilseed Rape: 0
Oilseed rape; [7]
  Plant response rating, Oilseed Rape: 0
Oilseed rape; [8]
  Plant response rating, Oilseed Rape: 0
Oilseed rape; [9]
  Plant response rating, Oilseed Rape: 0
Oilseed rape; [10]
  Oilseed Rape plant response rating: 0
Oilseed rape; [11]
  Oilseed Rape plant response rating: 0
Oilseed rape; [12]
  Plant response rating, Oilseed Rape: 20
Oilseed rape; Preemergence, 250 g ai/ha
  Plant response rating (scale of 0 to 100), Oilseed Rape: 60
foxtail, giant; [6]
  Plant response rating, Foxtail, Giant: 5
foxtail, giant; [7]
  Plant response rating, Foxtail, Giant: 5
foxtail, giant; [8]
  Plant response rating, Foxtail, Giant: 85
foxtail, giant; [9]
  Plant response rating, Foxtail, Giant: 85
foxtail, giant; [10]
  Foxtail, Giant plant response rating: 85
foxtail, giant; [11]
  Foxtail, Giant plant response rating: 90
foxtail, giant; [12]
  Plant response rating, Foxtail, Giant: 90
foxtail, giant; Preemergence, 250 g ai/ha
  Plant response rating (scale of 0 to 100), Foxtail, Giant: 95
